From patent US20260015337A1 (Trawsfynydd Therapeutics, Inc., priority 2022, published 2026)

target: 3CL Protease (Severe acute respiratory syndrome coronavirus 2, UniProt P0DTD1); experiment: 3CL Protease enzymatic activity assay (BPS Bioscience Assay Kit #78043-1, fluorescence); assay type: biochemical, SARS-CoV-2; settings: Table A; 30 min preincubation, 40 μM substrate, 4 hours at room temperature; read-out: IC50, nM (3CL Protease enzymatic activity)
Method: For determination of 3CL Protease enzymatic activity was used Assay Kit of BPS Bioscience, San Diego, CA (Catalog #78043-1).
All samples and controls should be tested in duplicate. • 1) Just before use, dilute 0.5 M DTT 500 times into the 3CL Protease Assay Buffer to obtain a DTT concentration of 1 mM. For example, add 10 μl of 0.5 M DTT to 5 ml of assay buffer. Prepare enough DTT-containing buffer as required for the assay. Store the remaining assay buffer at −20° C. • 2) Thaw the 3CL Protease on ice. Briefly spin the tube containing the enzyme to recover the full content of the tube. Note: 3CL Protease enzyme is sensitive to freeze/thaw cycles. […] Note: The exact concentration and volume of enzyme is lot-specific and will be indicated on the tube. Calculate required dilution from the information in the tube. It may be desirable to dilute the enzyme serially to avoid using large amounts of protease assay buffer for the dilution. • 4) Add 30 μl of diluted 3CL Protease to the wells designated as “Positive Control,” “Inhibitor Control,” and “Test Inhibitor.” Add 30 μl of Assay Buffer (containing 1 mM DTT) to the “Blank” wells. • 5) Dilute the 50 μg GC376 in 200 μl of Assay Buffer to obtain a 500 μM solution. Add 10 μl of GC376 (500 μM) to the wells labeled “Inhibitor Control”. Aliquot and store the remaining solution at −80° C. • 6) Prepare the Test Inhibitor. The final concentration of DMSO in the assay should not exceed 1%. If the Test Inhibitor is dissolved in DMSO, make a 100-fold higher concentration of the compound than the highest desired concentration. Then make a 20-fold dilution in 1× Assay Buffer (containing DTT). At this step the compound concentration is 5-fold higher than the final concentration. If the test inhibitor is dissolved in water, make a 5-fold higher concentration of the test compound than the final desired concentration in the Assay buffer (containing DTT). Add 10 μl of Test Inhibitor to each well designated “Test Inhibitor”. • 7) Diluent Solution (no inhibitor): add 10 μl of assay buffer (if the test compound is water soluble and was diluted in assay buffer) or 10 μl of 5% DMSO diluted in assay buffer (if DMSO was used to dissolve the test inhibitor) to “Blank” and “Positive Control” wells.
• 8) Preincubate for 30 min at room temperature with slow shaking. • 9) Dilute the 25 μl of 3CL Protease substrate (10 mM) in 1.25 ml of the Assay Buffer containing DTT, to make a […] solution. The final concentration of the 3CL Protease substrate in a 50 μl reaction is 40 μM. • 10) Start the reaction by adding 10 μl of the substrate solution to all the wells. Seal the plate with the plate sealer and incubate for 4 hours at room temperature with slow shaking. • 11) Measure the fluorescence intensity in a microtiter plate-reader fluorometer (Tecan Spark Cyto) capable of excitation at a wavelength 360 nm and detection of emission at a wavelength 460 nm. The fluorescence intensity can also be measured kinetically. The “Blank” value is subtracted from all other values. • The % inhibition was then used to calculate the IC50 values.

Row | SMILES | IC50 [nM]
1 | Cc1ccc2[nH]c(=O)c(C[C@@H](C#N)NC(=O)[C@@H]3C4[C@H](CN3C(=O)[C@@H](Nc3ccnc(C)n3)C(C)(C)C)C4(C)C)cc2c1 (stereo in doubt) [Compound 159, (1R,2S,5S)—N—((S)-1-Cyano-2-(6-methyl-2-oxo-1,2-dihydroquinolin-3-yl)ethyl)-3-((S)-3,3-dimethyl-2-((2-methylpyrimidin-4-yl)amino)butanoyl)-6,6-dimethyl-3-azabicyclo[3.1.0]hexane-2-carboxamide] | ≥ 1000
2 | Cc1ccc2[nH]c(=O)c(C[C@@H](C#N)NC(=O)[C@@H]3[C@H]4[C@H](CN3C(=O)[C@@H](NC(=O)C(F)(F)F)C(C)(C)C)C4(C)C)cc2c1 [Compound 113, (1S,2S,5S)—N-[(1S)-1-cyano-2-(6-methyl-2-oxo-1H-quinolin-3-yl)ethyl]-3-[(2S)-3,3-dimethyl-2-[(2,2,2-trifluoroacetyl)amino]butanoyl]-6,6-dimethyl-3-azabicyclo[3.1.0]hexane-2-carboxamide] | < 50
3 | Cc1ccc2[nH]c(=O)c(C[C@@H](C#N)NC(=O)[C@@H]3[C@H]4[C@H](CN3C(=O)[C@@H](NC(=O)C(F)(F)F)C(C)(C)C)C4(C)C)cc2c1 (stereo in doubt) [Compound 107, (1R,2S,5S)—N-(1-Cyano-2-(6-methyl-2-oxo-1,2-dihydroquinolin-3-yl)ethyl)-3-((S)-3,3-dimethyl-2-(2,2,2-trifluoroacetamido)butanoyl)-6,6-dimethyl-3-azabicyclo[3.1.0]hexane-2-carboxamide] | 50 to 100
4 | Cc1ccc2[nH]c(=O)c(C[C@@H](C#N)NC(=O)[C@@H]3[C@@H]4[C@H](CN3C(=O)Cc3cc(C)no3)C4(C)C)cc2c1 [Compound 192, (1R,2S,5S)—N—((S)-1-Cyano-2-(6-methyl-2-oxo-1,2-dihydroquinolin-3-yl)ethyl)-6,6-dimethyl-3-(2-(3-methylisoxazol-5-yl)acetyl)-3-azabicyclo[3.1.0]hexane-2-carboxamide] | ≥ 1000
5 | CC(C)(C)[C@H](NS(C)(=O)=O)C(=O)N1C[C@H]2C([C@H]1C(=O)NC(C#N)Cc1cc3c([nH]c1=O)CCOC3)C2(C)C (stereo in doubt) [Compound 124, (1R,2S,5S)—N-(1-Cyano-2-(2-oxo-1,5,7,8-tetrahydro-2H-pyrano[4,3-b]pyridine-3-yl)ethyl)-3-((S)-3,3-dimethyl-2-(methylsulfonamido)butanoyl)-6,6-dimethyl-3-azabicyclo[3.1.0]hexane-2-carboxamide] | 100 to 250
6 | CC(C)(C)[C@H](NS(C)(=O)=O)C(=O)N1C[C@H]2C([C@H]1C(=O)NC(C#N)Cc1cc3c([nH]c1=O)CCC(F)(F)C3)C2(C)C (stereo in doubt) [Compound 126, (1R,2S,5S)—N-(1-Cyano-2-(6,6-difluoro-2-oxo-1,2,5,6,7,8-hexahydroquinolin-3-yl)ethyl)-3-((S)-3,3-dimethyl-2-(methylsulfonamido)butanoyl)-6,6-dimethyl-3-azabicyclo[3.1.0]hexane-2-carboxamide] | 100 to 250
7 | Cc1ccc2[nH]c(=O)c(CC(C#N)NC(=O)[C@H](Cc3cc(F)c(F)cc3F)NC(=O)[C@@H](NS(=O)(=O)CC(F)(F)F)C(C)(C)C)cc2c1 (stereo partly drawn) [Compound 166, (2S)—N-((2S)-1-((1-Cyano-2-(6-methyl-2-oxo-1,2-dihydroquinolin-3-yl)ethyl)amino)-1-oxo-3-(2,4,5-trifluorophenyl)propan-2-yl)-3,3-dimethyl-2-((2,2,2-trifluoroethyl)sulfonamido)butanamide] | 500 to 1000
8 | Cc1ccc2[nH]c(=O)c(C[C@@H](C#N)NC(=O)[C@@H]3[C@@H]4[C@H](CN3C(=O)[C@@H](NS(=O)(=O)CC(F)(F)F)C(C)(C)C)C4(C)C)cc2c1 [Compound 195, (1R,2S,5S)—N—((S)-1-Cyano-2-(6-methyl-2-oxo-1,2-dihydroquinolin-3-yl)ethyl)-3-((S)-3,3-dimethyl-2-((2,2,2-trifluoroethyl)sulfonamido)butanoyl)-6,6-dimethyl-3-azabicyclo[3.1.0]hexane-2-carboxamide] | < 50
9 | Cc1ccc2c(c1)CC(CC(C#N)NC(=O)[C@@H]1[C@@H]3[C@H](CN1C(=O)[C@@H](NC(=O)C(F)(F)F)C(C)(C)C)C3(C)C)C(=O)N2 (stereo partly drawn) [Compound 199, (1R,2S,5S)—N-[1-Cyano-2-(6-methyl-2-oxo-3,4-dihydro-1H-quinolin-3-yl)ethyl]-3-[(2S)-3,3-dimethyl-2-[(2,2,2-trifluoroacetyl)amino]butanoyl]-6,6-dimethyl-3-azabicyclo[3.1.0]hexane-2-carboxamide] | < 50
10 | Cc1ccc2[nH]c(=O)c(C[C@H](C#N)NC(=O)C3C4C(CN3C(=O)[C@H](NS(=O)(=O)C3CC3)C(C)(C)C)C4(C)C)cc2c1 (stereo in doubt) [Compound 203, (1S)—N-[(1R)-1-Cyano-2-(6-methyl-2-oxo-1H-quinolin-3-yl)ethyl]-3-[(2R)-2-(cyclopropylsulfonylamino)-3,3-dimethyl-butanoyl]-6,6-dimethyl-3-azabicyclo[3.1.0]hexane-2-carboxamide] | 50 to 100
11 | CC(C)(C)[C@H](NC(=O)C(F)(F)F)C(=O)N1C[C@H]2C([C@H]1C(=O)NC(C#N)Cc1cc3c([nH]c1=O)CCOC3)C2(C)C (stereo in doubt) [Compound 123, (1R,2S,5S)—N-(1-Cyano-2-(2-oxo-1,5,7,8-tetrahydro-2H-pyrano[4,3-b]pyridine-3-yl)ethyl)-3-((S)-3,3-dimethyl-2-(2,2,2-trifluoroacetamido)butanoyl)-6,6-dimethyl-3-azabicyclo[3.1.0]hexane-2-carboxamide] | 100 to 250
12 | Cc1ccc2[nH]c(=O)c(C[C@@H](C#N)NC(=O)[C@@H]3C4[C@H](CN3C(=O)[C@@H](Nc3nc(C)cs3)C(C)(C)C)C4(C)C)cc2c1 (stereo in doubt) [Compound 157, (1R,2S,5S)—N—((S)-1-Cyano-2-(6-methyl-2-oxo-1,2-dihydroquinolin-3-yl)ethyl)-3-((S)-3,3-dimethyl-2-((4-methylthiazol-2-yl)amino)butanoyl)-6,6-dimethyl-3-azabicyclo[3.1.0]hexane-2-carboxamide] | 250 to 500
13 | CC1(C)CCc2[nH]c(=O)c(CC(C#N)NC(=O)[C@@H]3C4[C@H](CN3C(=O)[C@@H](NS(C)(=O)=O)C(C)(C)C)C4(C)C)cc2C1 (stereo in doubt) [Compound 128, (1R,2S,5S)—N-(1-Cyano-2-(6,6-dimethyl-2-oxo-1,2,5,6,7,8-hexahydroquinolin-3-yl)ethyl)-3-((S)-3,3-dimethyl-2-(methylsulfonamido)butanoyl)-6,6-dimethyl-3-azabicyclo[3.1.0]hexane-2-carboxamide] | 500 to 1000
14 | Cc1ccc2[nH]c(=O)c(C[C@@H](C#N)NC(=O)[C@@H]3[C@@H]4[C@H](CN3C(=O)Cc3cc(C(F)(F)F)no3)C4(C)C)cc2c1 [Compound 193, (1R,2S,5S)—N—((S)-1-Cyano-2-(6-methyl-2-oxo-1,2-dihydroquinolin-3-yl)ethyl)-6,6-dimethyl-3-(2-(3-(trifluoromethyl)isoxazol-5-yl)acetyl)-3-azabicyclo[3.1.0]hexane-2-carboxamide] | ≥ 1000
15 | COc1cccc2oc(C(=O)N3C[C@H]4[C@@H]([C@H]3C(=O)N[C@H](C#N)Cc3cc5cc(C)ccc5[nH]c3=O)C4(C)C)cc12 [Compound 196, (1R,2S,5S)—N—((S)-1-Cyano-2-(6-methyl-2-oxo-1,2-dihydroquinolin-3-yl)ethyl)-3-(4-methoxybenzofuran-2-carbonyl)-6,6-dimethyl-3-azabicyclo[3.1.0]hexane-2-carboxamide] | ≥ 1000
16 | CN1c2ccccc2NC(=O)C1CC(C#N)NC(=O)[C@@H]1[C@@H]2[C@H](CN1C(=O)[C@@H](NC(=O)C(F)(F)F)C(C)(C)C)C2(C)C (stereo partly drawn) [Compound 187, (1R,2S,5S)—N-[1-Cyano-2-(1-methyl-3-oxo-2,4-dihydroquinoxalin-2-yl)ethyl]-3-[(2S)-3,3-dimethyl-2-[(2,2,2-trifluoroacetyl)amino]butanoyl]-6,6-dimethyl-3-azabicyclo[3.1.0]hexane-2-carboxamide] | ≥ 1000

same assay, conditions: Table B; comparison with known compound K; read-out: IC50, nM (3CL Protease enzymatic activity, comparative data)

Row | SMILES | IC50 [nM]
17 | CC(C)(C)[C@H](NC(=O)C(F)(F)F)C(=O)N1C[C@H]2C([C@H]1C(=O)NC(C#N)Cc1cc3c([nH]c1=O)CCOC3)C2(C)C (stereo in doubt) [Compound 123, (1R,2S,5S)—N-(1-Cyano-2-(2-oxo-1,5,7,8-tetrahydro-2H-pyrano[4,3-b]pyridine-3-yl)ethyl)-3-((S)-3,3-dimethyl-2-(2,2,2-trifluoroacetamido)butanoyl)-6,6-dimethyl-3-azabicyclo[3.1.0]hexane-2-carboxamide] | 180
